According to patent US20210127673A1, “HERBICIDES” (SYNGENTA PARTICIPATIONS AG, priority 2016, published 2021):

What was measured:
Type in all cases: in vivo
Conditions in all cases: evaluated after 13 days
[1] = system: Alopecurus myosuroides (ALOMY); assay: Pre-emergence herbicidal activity, Alopecurus myosuroides; design: key: 5=total damage to plant; 0=no damage to plant
Procedure, shortened: (§1)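 Pots of seeds were sprayed one day after sowing (pre-emergence) with compound in acetone/water (50:50) plus 0.5% Tween 20, then grown in a glasshouse at 24/16 °C day/night, 14 h light, 65% humidity. Damage scored 0–5 (5 = total damage) after 13 days.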

[2] = system: Triticum aestivium (TRZAW); assay: Post-emergence herbicidal activity, Triticum aestivium; design: key: 5=total damage to plant; 0=no damage to plant
Procedure, shortened: (§2)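 Scoring runs 0 (no damage) to 5 (total damage), assessed 13 days after treatment. Seedlings 8 days post-sowing received an aqueous spray from acetone/water 50:50 with 0.5% Tween 20, then were kept at 24/16 °C, 14 h light, 65% humidity and watered twice daily.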

Avena fatua (AVEFA) [3] = assay: Post-emergence herbicidal activity, Avena fatua
Procedure, shortened: as §2

Setaria faberi (SETFA) [4] = assay: Post-emergence herbicidal activity, Setaria faberi; design: key: 5=total damage to plant; 0=no damage to plant
Procedure, shortened: as §2

[5] = system: Alopecurus myosuroides (ALOMY); assay: Post-emergence herbicidal activity, Alopecurus myosuroides; design: key: 5=total damage to plant; 0=no damage to plant
Procedure, shortened: as §2

Setaria faberi (SETFA) [6] = assay: Pre-emergence herbicidal activity, Setaria faberi; design: key: 5=total damage to plant; 0=no damage to plant
Procedure, shortened: as §1

Lolium perenne (LOLPE) [7] = assay: Pre-emergence herbicidal activity, Lolium perenne; design: key: 5=total damage to plant; 0=no damage to plant
Procedure, shortened: as §1

Avena fatua (AVEFA) [8] = assay: Pre-emergence herbicidal activity, Avena fatua; design: key: 5=total damage to plant; 0=no damage to plant
Procedure, shortened: as §1

Lolium perenne (LOLPE) [9] = assay: Post-emergence herbicidal activity, Lolium perenne
Procedure, shortened: as §2

[10] = system: Echinochloa crus-galli (ECHCG); assay: Pre-emergence herbicidal activity, Echinochloa crus-galli
Procedure, shortened: as §1

[11] = system: Echinochloa crus-galli (ECHCG); assay: Post-emergence herbicidal activity, Echinochloa crus-galli; design: key: 5=total damage to plant; 0=no damage to plant
Procedure, shortened: as §2

[12] = system: Triticum aestivium (TRZAW); assay: Pre-emergence herbicidal activity, Triticum aestivium; design: key: 5=total damage to plant; 0=no damage to plant
Procedure, shortened: as §1

Row | Structure (SMILES) | Control of ALOMY after pre-emergence application (score 0-5) ([1]; 1000 g/ha) | Control of TRAZW after post-emergence application (score 0-5) ([2]; 1000 g/ha) | Control of AVEFA after post-emergence application (score 0-5) (Avena fatua (AVEFA) [3]; 1000 g/ha) | Control of SETFA after post-emergence application (score 0-5) (Setaria faberi (SETFA) [4]; 1000 g/ha) | Control of ALOMY after post-emergence application (score 0-5) ([5]; 1000 g/ha) | Control of SETFA after pre-emergence application (score 0-5) (Setaria faberi (SETFA) [6]; 1000 g/ha) | Control of LOLPE after pre-emergence application (score 0-5) (Lolium perenne (LOLPE) [7]; 1000 g/ha) | Control of AVEFA after pre-emergence application (score 0-5) (Avena fatua (AVEFA) [8]; 1000 g/ha) | Control of LOLPE after post-emergence application (score 0-5) (Lolium perenne (LOLPE) [9]; 1000 g/ha) | Control of ECHCG after pre-emergence application (score 0-5) ([10]; 1000 g/ha) | Control of ECHCG after post-emergence application (score 0-5) ([11]; 1000 g/ha) | Control of TRAZW after pre-emergence application (score 0-5) ([12]; 1000 g/ha) | other results
1 | O=C(Nc1ccc(-c2cncc(F)c2)nc1C(F)(F)F)N1CCCC1 [Compound B63] | 1 | 0 | 2 | 3 | 0 | 2 | 0 | 0 | 2 | 2 | 5 | 0 | –
2 | O=C(Nc1ccc(-c2cncc(F)c2)nc1C(F)(F)F)N1CCSCC1 [Compound B54] | 0 | 1 | 4 | 4 | 1 | 3 | 1 | 2 | 3 | 3 | 4 | 0 | –
3 | CN1CCN(C(=O)Nc2ccc(-c3cncc(F)c3)nc2C(F)(F)F)CC1 [Compound B48] | 0 | 0 | 2 | 5 | 0 | 4 | 1 | 1 | 1 | 3 | 4 | 0 | –
4 | CC#Cc1cncc(-c2ccc(NC(=O)OC(C)(C)C)c(C)n2)c1 [Compound B33] | 0 | 2 | 4 | 5 | 2 | 4 | 1 | 2 | 3 | 2 | 2 | 0 | –
5 | C#CCNC(=O)Nc1ccc(-c2cncc(F)c2)nc1C(F)(F)F [Compound B41] | 0 | 0 | 3 | 5 | 0 | 5 | 1 | 1 | 2 | 4 | 4 | 0 | –
6 | O=C(Nc1ccc(-c2cncc(F)c2)nc1C(F)(F)F)NC1CC1 [Compound B89] | 0 | 1 | 4 | 5 | 0 | 5 | 1 | 2 | 2 | 4 | 5 | 0 | –
7 | O=C(Nc1ccc(-c2cncc(F)c2)nc1C(F)(F)F)OC1CCOCC1 [Compound B93] | – | – | – | – | – | – | – | – | – | – | – | – | Control of ALOMY after pre-emergence application (score 0-5) ([1]; 250 g/ha): 0; Control of TRAZW after post-emergence application (score 0-5) ([2]; 250 g/ha): 0; Control of AVEFA after post-emergence application (score 0-5) (Avena fatua (AVEFA) [3]; 250 g/ha): 4; Control of SETFA after post-emergence application (score 0-5) (Setaria faberi (SETFA) [4]; 250 g/ha): 5; Control of ALOMY after post-emergence application (score 0-5) ([5]; 250 g/ha): 0; Control of SETFA after pre-emergence application (score 0-5) (Setaria faberi (SETFA) [6]; 250 g/ha): 5; Control of LOLPE after pre-emergence application (score 0-5) (Lolium perenne (LOLPE) [7]; 250 g/ha): 1; Control of AVEFA after pre-emergence application (score 0-5) (Avena fatua (AVEFA) [8]; 250 g/ha): 2; Control of LOLPE after post-emergence application (score 0-5) (Lolium perenne (LOLPE) [9]; 250 g/ha): 3; Control of ECHCG after pre-emergence application (score 0-5) ([10]; 250 g/ha): 4; Control of ECHCG after post-emergence application (score 0-5) ([11]; 250 g/ha): 5; Control of TRAZW after pre-emergence application (score 0-5) ([12]; 250 g/ha): 0
8 | CCCOC(=O)Nc1ccc(-c2cncc(F)c2)nc1C(F)(F)F [Compound B42] | 1 | 2 | 4 | 5 | 1 | 5 | 1 | 3 | 3 | 4 | 5 | 0 | –
9 | O=C(Nc1ccccc1)Nc1ccc(-c2cncc(F)c2)nc1C(F)(F)F [Compound B71] | 0 | 1 | 2 | 3 | 0 | 1 | 0 | 0 | 2 | 1 | 3 | 0 | –
10 | C=CCOC(=O)Nc1ccc(-c2cncc(F)c2)nc1C(F)(F)F [Compound B119] | 0 | 0 | 4 | 5 | 0 | 5 | 0 | 2 | 3 | 3 | 3 | 0 | –
